Laboratory results published in patent US8932853B2, “Method for manufacturing pancreatic-hormone-producing cells” (Takeda Pharmaceutical Company Limited, priority 2009, dated 2015).
“Also recorded” adds a separate entry of the source.

Key:
Assay type in all cases: cell-based
[1] = system: insulin-producing cells differentiated from human iPS cells; assay: C-peptide secretion of differentiated insulin-producing cells in response to stimulation (Human C-peptide ELISA); settings: 1 hr at 37° C. in buffer containing 2.5 mM glucose; (−)-Bay K8644 2 μM, tolbutamide 100 μM, carbachol 250 μM, IBMX 0.5 mM, KCl 30 mM; relative to 2.5 mM glucose
Protocol: The medium was changed once on day 7 of induction. […] The medium was changed every 3-4 days. After the culture, the cells were washed with a buffer containing 2.5 mM glucose (NaCl (116 mM), KCl (4.7 mM), KH2PO4 (1.18 mM), MgSO4 (1.18 mM), NaHCO3 (25 mM), CaCl2 (2.52 mM), HEPES (24 mM), 0.1% BSA), a buffer containing 2.5 mM glucose was added and the mixture was cultured at 37° C. for 2 hr. The supernatant was completely removed, and a buffer containing 2.5 mM glucose, a buffer containing 22.5 mM glucose, a buffer containing 2.5 mM glucose and 2 μM (−)-Bay K8644, a buffer containing 2.5 mM glucose and 100 μM tolbutamide, a buffer containing 2.5 mM glucose and 250 μM carbachol, a buffer containing 2.5 mM glucose and 0.5 mM IBMX, and a buffer containing 2.5 mM glucose and 30 mM KCl were respectively added. After culture at 37° C. for 1 hr, the culture supernatant was recovered, and the C-peptide contained in the culture supernatant was measured using Human C-peptide ELISA kit (Mercodia AB).

[2] = system: human iPS cells (253G1 strain); assay: quantitative RT-PCR of BRACHYURY and SOX17 during induction of human iPS cells into endodermal cells, steps (1)-(2); settings: added with activin A (100 ng/ml) only the first day, CHIR99021 3 μM, Wnt3a 25 ng/ml, relative to GAPDH
Description: As a first stage for induction of differentiation of human iPS cells (iPS cells obtained by introducing Oct3/4 gene, Klf4 gene and Sox2 gene: see Nat Biotechnol 2008; 26: 101-106) into pancreas cells (particularly pancreatic hormone-producing cells), differentiation of human iPS cells was induced into endodermal cells by using a 96 well plate.
As the human iPS cells, 253G1 strain (iPS cell line produced by expressing OCT4/SOX2/KLF4 with retrovirus; Nature Biotechnology 26, 101-106) was used. Maintenance culture of the iPS cells in an undifferentiated state was performed using mitomycin-treated mouse fibroblast (MEFs) seeded on a gelatin-coated plate as feeder cells, and a medium for primate ES cells (ReproCELL Incorporated) added with 4 ng/ml bFGF (PeproTech EC) and 0.5× Penicillin-streptomycin (SIGMA) as a medium at 37° C. under 5% CO2. The medium was changed every day, the cell mass was detached every 4-5 days using a cell detachment solution for primate ES cell (ReproCELL Incorporated), and passaged by seeding on new feeder cells.
As a preculture for differentiation induction into endodermal cells, undifferentiated iPS cells were seeded in a 96 well plate. First, iPS cells maintained in a cell mass was treated with 0.25% trypsin-1 mM EDTA solution (GIBCO) and dissociated until they became single cells. Then, iPS cells dispersed in a medium were seeded in a 96 well plate at a density of 2×10^4 cells per well and cultured at 37° C. under 5% CO2 for 1 day. The 96 well plate used had been gelatin-coated, seeded with 5×10^3 MEFs and cultured at 37° C. under 5% CO2 for 5 hr. In addition, as a culture medium for seeding, a medium for primate ES cells added with 10 μM Y-27632 (Wako Pure Chemical Industries, Ltd.) was used. One day after seeding, the medium was changed to a medium for primate ES cells without Y-27632, and the cells were further cultured for 2 days until they became confluent.
Differentiation of iPS cells into endodermal cells was induced according to the following method. First, the confluent cells were washed with RPMI medium (GIBCO), RPMI medium containing various differentiation-inducing factors and 2% fetal bovine serum (FBS) was added, and the mixture was cultured for 1 day. […]
To examine variation in the expression of endoderm differentiation marker when cultured under each condition, differentiation-induced cells were recovered over time, and the total RNA fractions were purified using RNeasy96 (Qiagen). Using a PrimeScript RT reagent kit (Takara Bio Inc.), cDNA was synthesized, and quantitative RT-PCR was performed, whereby the gene expression level of BRACHYURY, which is a primitive streak marker, and SOX17, which is an endodermal marker, was measured.

[3] = system: human iPS cells (253G1 strain); assay: immunofluorescent staining with anti-SOX17 antibody on day 3 of differentiation induction
Protocol: To examine expression of SOX17 protein after culture for 3 days, immunofluorescent staining using an anti-SOX17 antibody was performed. After culture up to day 3 in the same manner as in FIG. 1, the cells were fixed with 2% para-formaldehyde (PFA) for 10 min and further for 20 min with 4% PFA at room temperature.
Whether even use of a GSK3 inhibitor other than CHIR99021 in step (1) enables differentiation induction into endodermal cells was examined. The differentiation of human iPS cells into endodermal cells was induced according to the following method. […] Thereafter, the cells were washed with RPMI medium (GIBCO), and cultured for 1 day in RPMI medium containing various GSK3 inhibitors, activin A (100 ng/ml) and 2% fetal bovine serum (FBS). […] As a control, the cells were treated with a medium added only with activin A and free of GSK3 inhibitor. After culture for 1 day, the cells were washed with RPMI medium, and further cultured for 2 days in RPMI medium added with 2% FBS and 100 ng/ml activin A.
To examine expression of SOX17 protein on day 3 of differentiation induction, immunofluorescent staining using an anti-SOX17 antibody was performed. 4% PFA was added to the cells on day 3 of culture under each condition, the mixture was incubated at room temperature for 30 min to fix the cells.

[4] = system: progenitor cells of pancreatic hormone-producing cells induced from human iPS cells; assay: immunofluorescent staining with anti-insulin antibody after step (4); settings: each added alone in step (4), day 10 to day 21; forskolin 10 μM, dibutyl cAMP 500 μM, IBMX 200 μM, ALK5 inhibitor II 5 μM, A-83-01 0.5 μM, SB431542 10 μM, TGFβRI kinase inhibitor VIII 2 μM, dexamethasone 10 μM, hydrocortisone 5 μM, betamethasone 2 μM, beclomethasone 1 μM
[5] = system: endodermal cells induced from human iPS cells; settings: added simultaneously with dorsomorphin (1 μM) and retinoic acid (2 μM) day 3 to day 10; SB431542 5 μM, ALK5 inhibitor II 2 μM, A-83-01 0.2 μM, TGFβRI kinase inhibitor VIII 0.2 μM; vs dorsomorphin and retinoic acid alone
Protocol: The dorsomorphin is an inhibitor of AMP-activated protein kinase (AMPK), and an inhibitor of ALK2, ALK3 and ALK6 from among activin receptor-like kinases (ALK). In addition, SB431542 is an inhibitor of ALK4, ALK5 and ALK7 from among ALKs.
As a control, the medium was changed to one added with dorsomorphin and retinoic acid alone (Ctrl). […] After the culture, the expression level of NGN3, which is progenitor cells of pancreatic hormone-producing cells marker, was measured in the same manner as in Example 1.

| Molecule | C-peptide secretion level [1] | positive rate of insulin-expressing cells [4] | further results |
| --- | --- | --- | --- |
| COC(=O)C1=C(C)NC(C)=C([N+](=O)[O-])C1c1ccccc1C(F)(F)F (single isomer, unassigned; (-)) [(−)-Bay K8644] | increased |  |  |
| Cc1c[nH]c(-c2cnc(NCCNc3ccc(C#N)cn3)nc2-c2ccc(Cl)cc2Cl)n1 [CHIR99021, 6-[[2-[[4-(2,4-dichlorophenyl)-5-(4-methyl-1H-imidazol-2-yl)-2-pyrimidinyl]amino]ethyl]amino]nicotinonitrile] |  |  | expression level of SOX17 (endodermal marker) ([2]; then activin A alone 2 days, days 2-3): increased markedly; also recorded: high value; expression level of BRACHYURY (primitive streak marker) ([2]; day 1 of differentiation induction): transiently increased; also recorded: highest value; ratio of cells expressing SOX17 protein ([3]; added with activin A (100 ng/ml) for 1 day, then activin A alone 2 days, CHIR99021 3 μM, Wnt3a 25 ng/ml, SB415286 3 μM, SB216763 20 μM): highest; also recorded: increased |
| Cc1cccc(-c2nn(C(=S)Nc3ccccc3)cc2-c2ccnc3ccccc23)n1 [Example A-83-01, 3-[6-methyl-2-pyridinyl]-N-phenyl-4-[4-quinolinyl]-1H-pyrazole-1-carbothioamide] |  | remarkably increased; also recorded: induced differentiation into insulin-positive cells with high efficiency | expression level of NGN3 [5]: increased remarkably |
| CC(C)Cn1c(=O)n(C)c(=O)c2[nH]cnc21 [IBMX, 3-isobutyl-1-methylxanthine] | increased | remarkably increased; also recorded: induced differentiation into insulin-positive cells with high efficiency |  |
| [Cl-].[K+] [KCl] | increased |  |  |
| NC(=O)c1ccc(-c2nc(-c3ccc4c(c3)OCO4)c(-c3ccccn3)[nH]2)cc1 [SB431542, 4-[4-(1,3-benzodioxol-5-yl)-5-(2-pyridinyl)-1H-imidazol-2-yl]-benzamide] |  | remarkably increased; also recorded: induced differentiation into insulin-positive cells with high efficiency | expression level of NGN3 [5]: increased remarkably |
| Cc1cccc(-c2[nH]c(C(C)(C)C)nc2-c2ccc3nccnc3c2)n1 [TGFβRI kinase inhibitor VIII, 6-[2-tert-butyl-5-[6-methyl-pyridin-2-yl]-1H-imidazol-4-yl]-quinoxaline] |  | remarkably increased; also recorded: induced differentiation into insulin-positive cells with high efficiency | expression level of NGN3 [5]: increased remarkably |
| C[C@H]1C[C@H]2[C@@H]3CCC4=CC(=O)C=C[C@]4(C)[C@@]3(Cl)[C@@H](O)C[C@]2(C)[C@@]1(O)C(=O)CO [beclomethasone] |  | remarkably increased; also recorded: induced differentiation into insulin-positive cells with high efficiency |  |
| C[N+](C)(C)CCOC(N)=O [carbachol] | increased |  |  |
| CCCC(=O)Nc1ncnc2c1ncn2[C@@H]1O[C@@H]2COP(=O)(O)O[C@H]2[C@H]1OC(=O)CCC [dibutyl cAMP] |  | remarkably increased; also recorded: induced differentiation into insulin-positive cells with high efficiency |  |
| C[C@]12CCC(=O)C=C1CC[C@@H]1[C@@H]2[C@@H](O)C[C@@]2(C)[C@H]1CC[C@]2(O)C(=O)CO [hydrocortisone] |  | remarkably increased; also recorded: induced differentiation into insulin-positive cells with high efficiency |  |
| CCCCNC(=O)NS(=O)(=O)c1ccc(C)cc1 [tolbutamide] | increased |  |  |
| activin A: 24 kD peptidic cell proliferation and differentiation factor belonging to the TGFβ family; activator of activin receptor-like kinase-4,7 (protein, UniProt P08476 311-426, looked up, Inhibin beta A chain) Inhibin beta A chain: GLECDGKVNICCKKQFFVSFKDIGWNDWIIAPSGYHANYCEGECPSHIAGTSGSSLSFHSTVINHYRMRGHSPFANLKSCCVPTKLRPMSMLYYDDGQNIIKKDIQNMIVEECGCS |  |  | ratio of cells expressing SOX17 protein ([3]; activin A (100 ng/ml) alone for 3 days (Comparative Example 1)): a part of the cells also expressed SOX17 protein |
